The record followed here is ChEMBL document CHEMBL4706534, “1,2,3-Triazole-containing hybrids with potential antibacterial activity against methicillin-resistant Staphylococcus aureus (MRSA)” (Eur J Med Chem, 2020).

Assay [1] relates to Staphylococcus aureus. The assay is described as follows: Antibacterial activity against methicillin-sensitive Staphylococcus aureus ATCC 29213 by broth microdilution method. Type of assay: functional.
Assay [2] deals with Staphylococcus aureus. Put plainly: Antibacterial activity against methicillin-resistant Staphylococcus aureus ATCC 33591 by broth microdilution method. The format is functional. (In general: In broth dilution the organism is exposed to a series of concentrations in liquid medium.)
Assay [3] relates to Staphylococcus aureus. Put plainly: Antibacterial activity against Staphylococcus aureus ATCC 25923 by CLSI-based broth microdilution method. The format is functional.
The test system of assay [4] is Staphylococcus aureus. The assay is described as follows: Antibiofilm activity against methicillin-resistant Staphylococcus aureus ATCC BAA-44 incubated for 24 hrs by crystal violet-staining based assay. The format is functional, organism-based. The note with it: ATCC BAA-44, 24 h.
Assay [5] has as its system Staphylococcus aureus. The assay is described as follows: Potentiation of oxacillin-induced antibacterial activity against methicillin-resistant Staphylococcus aureus ATCC BAA-44 assessed as reduction in oxacillin MIC preincubated for 30 mins followed by oxacillin addition and measured after 16 hrs by broth microdilution method. Type of assay: functional. The settings on record: time 16.5 hrs.

SMILES strings stand for the structures. Converted amounts (≈) assume the structure as drawn.

Take `CCCCCCCCc1cn([C@H]2C(=O)N[C@@H]3Cc4ccc(c(Cl)c4)Oc4cc5cc(c4O)Oc4ccc(cc4Cl)[C@@H](O[C@@H]4O[C@H](CO)[C@@H](O)[C@H](O)[C@H]4NC(C)=O)[C@@H]4NC(=O)[C@H](NC(=O)[C@@H]5NC(=O)[C@@H](NC3=O)c3cc(O)cc(c3)Oc3cc2ccc3O)c2ccc(O)c(c2)-c2c(O)cc(O)cc2[C@H](C(=O)O)NC4=O)nn1`: the MIC in assay [1] and in assay [2] was 0.16 µg/mL (≈ 0.102 µM) throughout.

Regarding `CC(=O)N[C@H]1[C@H](O[C@@H]2c3ccc(c(Cl)c3)Oc3cc4cc(c3O)Oc3ccc(cc3Cl)C[C@H]3NC(=O)[C@H](n5cc(COc6ccccc6)nn5)c5ccc(O)c(c5)Oc5cc(O)cc(c5)[C@H](NC3=O)C(=O)N[C@H]4C(=O)N[C@H]3C(=O)N[C@@H]2C(=O)N[C@@H](C(=O)O)c2cc(O)cc(O)c2-c2cc3ccc2O)O[C@H](CO)[C@@H](O)[C@@H]1O`, the MIC in assay [1] and in assay [2] was 0.5 µg/mL (≈ 0.32 µM) throughout.

Take `CC(=O)N[C@H]1[C@H](O[C@@H]2c3ccc(c(Cl)c3)Oc3cc4cc(c3O)Oc3ccc(cc3Cl)C[C@H]3NC(=O)[C@H](n5cc(CO[C@H]6[C@@H](OCc7ccccc7)[C@@H](COCc7ccccc7)O[C@@H](O[C@H]7[C@H](OCc8ccccc8)[C@@H](OCc8ccccc8)[C@H](Sc8ccccc8)O[C@@H]7COCc7ccccc7)[C@@H]6OCc6ccccc6)nn5)c5ccc(O)c(c5)Oc5cc(O)cc(c5)[C@H](NC3=O)C(=O)N[C@H]4C(=O)N[C@H]3C(=O)N[C@@H]2C(=O)N[C@@H](C(=O)O)c2cc(O)cc(O)c2-c2cc3ccc2O)O[C@H](CO)[C@@H](O)[C@@H]1O`: the MIC in assay [1] and in assay [2] was 32 µg/mL (≈ 13.1 µM) in each case.

As for `CC(=O)N[C@H]1[C@H](O[C@@H]2c3ccc(c(Cl)c3)Oc3cc4cc(c3O)Oc3ccc(cc3Cl)C[C@H]3NC(=O)[C@H](n5cc(COc6cccc7ccccc67)nn5)c5ccc(O)c(c5)Oc5cc(O)cc(c5)[C@H](NC3=O)C(=O)N[C@H]4C(=O)N[C@H]3C(=O)N[C@@H]2C(=O)N[C@@H](C(=O)O)c2cc(O)cc(O)c2-c2cc3ccc2O)O[C@H](CO)[C@@H](O)[C@@H]1O`, the MIC in assay [1] and in assay [2] was 0.5 µg/mL (≈ 0.31 µM) in each case.

Consider `CC1(C)S[C@@H]2[C@H](NC(=O)[C@H](N)c3ccccc3)C(=O)N2[C@H]1C(=O)O` [AMPICILLIN], for which inhibition of growth in assay [3] (MIC) required 4 µg/mL (≈ 11.4 µM).

As to `CC(=O)N[C@H]1[C@H](O[C@@H]2c3ccc(c(Cl)c3)Oc3cc4cc(c3O)Oc3ccc(cc3Cl)C[C@H]3NC(=O)[C@H](n5cc(COC[C@H]6O[C@@H]7OC(C)(C)O[C@@H]7[C@H]7OC(C)(C)O[C@H]76)nn5)c5ccc(O)c(c5)Oc5cc(O)cc(c5)[C@H](NC3=O)C(=O)N[C@H]4C(=O)N[C@H]3C(=O)N[C@@H]2C(=O)N[C@@H](C(=O)O)c2cc(O)cc(O)c2-c2cc3ccc2O)O[C@H](CO)[C@@H](O)[C@@H]1O`, the MIC in assay [1] and in assay [2] was 0.5 µg/mL (≈ 0.29 µM) throughout.

Consider `CCCCCCCCOCc1cn([C@H]2C(=O)N[C@@H]3Cc4ccc(c(Cl)c4)Oc4cc5cc(c4O)Oc4ccc(cc4Cl)[C@@H](O[C@@H]4O[C@H](CO)[C@@H](O)[C@H](O)[C@H]4NC(C)=O)[C@@H]4NC(=O)[C@H](NC(=O)[C@@H]5NC(=O)[C@@H](NC3=O)c3cc(O)cc(c3)Oc3cc2ccc3O)c2ccc(O)c(c2)-c2c(O)cc(O)cc2[C@H](C(=O)O)NC4=O)nn1`, for which the MIC in assay [1] and in assay [2] was 0.5 µg/mL (≈ 0.313 µM) throughout.

In the case of `COc1ccc(-c2[nH]c(N)nc2CCCCCc2cn(C/C(C)=C\c3ccccc3)nn2)cc1`, the midpoint of inhibition in assay [4], the IC50, lay at 1340 nM. For the same molecule, the “fold change (FC)” value in assay [5] turned out to be 2.
